In the NIST ThermoML archive (doi:10.1016/j.jct.2007.07.005):

Assay: xn = mol fraction of the nth substance listed
Details: Fluid (supercritical or subcritical phases), vibrating tube

CCCCCO [pentan-1-ol] + O=C=O
Details | mass density [kg/m3]
323.11 K, 21027 kPa, x2 = 0.1347 | 813.66
323.11 K, 21051 kPa, x2 = 0.6054 | 847.84
323.11 K, 22019 kPa, x2 = 0.6054 | 849.47
323.11 K, 22027 kPa, x2 = 0.1347 | 814.42
323.11 K, 23017 kPa, x2 = 0.1347 | 815.16
323.11 K, 23023 kPa, x2 = 0.6054 | 851.13
323.11 K, 24022 kPa, x2 = 0.1347 | 815.93
323.11 K, 24036 kPa, x2 = 0.6054 | 852.76
323.11 K, 24999 kPa, x2 = 0.1347 | 816.68
323.11 K, 25069 kPa, x2 = 0.6054 | 854.41
332.79 K, 493 kPa, x2 = 0 | 784.29
332.79 K, 1014 kPa, x2 = 0 | 784.76
332.79 K, 2006 kPa, x2 = 0 | 785.61
332.79 K, 3025 kPa, x2 = 0 | 786.48
332.79 K, 4011 kPa, x2 = 0 | 787.28
332.79 K, 5020 kPa, x2 = 0 | 788.11
332.79 K, 6003 kPa, x2 = 0 | 788.91
332.79 K, 6997 kPa, x2 = 0 | 789.73
332.79 K, 8009 kPa, x2 = 0 | 790.54
332.79 K, 8995 kPa, x2 = 0 | 791.31
332.79 K, 9996 kPa, x2 = 0 | 792.12
332.79 K, 11018 kPa, x2 = 0 | 792.9
332.79 K, 11995 kPa, x2 = 0 | 793.66
332.79 K, 13023 kPa, x2 = 0 | 794.45
332.79 K, 13999 kPa, x2 = 0 | 795.19
332.79 K, 15010 kPa, x2 = 0 | 795.95
332.79 K, 16028 kPa, x2 = 0 | 796.68
332.79 K, 17003 kPa, x2 = 0 | 797.41
332.79 K, 18040 kPa, x2 = 0 | 798.14
332.79 K, 19004 kPa, x2 = 0 | 798.84
332.79 K, 20035 kPa, x2 = 0 | 799.59
332.79 K, 21024 kPa, x2 = 0 | 800.29
332.79 K, 21993 kPa, x2 = 0 | 800.97
332.79 K, 23039 kPa, x2 = 0 | 801.71
332.79 K, 24015 kPa, x2 = 0 | 802.4
332.79 K, 25022 kPa, x2 = 0 | 803.12
332.93 K, 8022 kPa, x2 = 0.3624 | 806.47
332.93 K, 9003 kPa, x2 = 0.3624 | 807.66
332.93 K, 9033 kPa, x2 = 0.4651 | 808.88
332.93 K, 10018 kPa, x2 = 0.3624 | 808.86
332.93 K, 10027 kPa, x2 = 0.4651 | 810.57
332.93 K, 10989 kPa, x2 = 0.3624 | 809.94
332.93 K, 11000 kPa, x2 = 0.4651 | 812.22
332.93 K, 12008 kPa, x2 = 0.3624 | 811.14
332.93 K, 12019 kPa, x2 = 0.4651 | 813.92
332.93 K, 12032 kPa, x2 = 0.8067 | 770.68
332.93 K, 12989 kPa, x2 = 0.9757 | 593.78
332.93 K, 12995 kPa, x2 = 0.8067 | 780.67
332.93 K, 13015 kPa, x2 = 0.3624 | 812.22
332.93 K, 13017 kPa, x2 = 0.4651 | 815.52
332.93 K, 13981 kPa, x2 = 0.3624 | 813.29
332.93 K, 13992 kPa, x2 = 0.9757 | 633.72
332.93 K, 14013 kPa, x2 = 0.8067 | 788.98
332.93 K, 14027 kPa, x2 = 0.4651 | 817.14
332.93 K, 15014 kPa, x2 = 0.9757 | 664.21
332.93 K, 15021 kPa, x2 = 0.3624 | 814.39
332.93 K, 15023 kPa, x2 = 0.4651 | 818.68
332.93 K, 15025 kPa, x2 = 0.8067 | 796.09
332.93 K, 15992 kPa, x2 = 0.3624 | 815.41
332.93 K, 16007 kPa, x2 = 0.4651 | 820.18
332.93 K, 16011 kPa, x2 = 0.9757 | 687.95
332.93 K, 16021 kPa, x2 = 0.8067 | 802.3
332.93 K, 17012 kPa, x2 = 0.3624 | 816.44
332.93 K, 17014 kPa, x2 = 0.4651 | 821.68
332.93 K, 17021 kPa, x2 = 0.8067 | 808.04
332.93 K, 17022 kPa, x2 = 0.9757 | 707.96
332.93 K, 18010 kPa, x2 = 0.3624 | 817.48
332.93 K, 18021 kPa, x2 = 0.8067 | 813.35
332.93 K, 18021 kPa, x2 = 0.9757 | 724.84
332.93 K, 18040 kPa, x2 = 0.4651 | 823.21
332.93 K, 19008 kPa, x2 = 0.9757 | 739.5
332.93 K, 19011 kPa, x2 = 0.8067 | 818.27
332.93 K, 19015 kPa, x2 = 0.4651 | 824.63
332.93 K, 19032 kPa, x2 = 0.3624 | 818.5
332.93 K, 19997 kPa, x2 = 0.3624 | 819.44
332.93 K, 20022 kPa, x2 = 0.8067 | 822.95
332.93 K, 20026 kPa, x2 = 0.4651 | 826.05
332.93 K, 20041 kPa, x2 = 0.9757 | 753.18
332.93 K, 21019 kPa, x2 = 0.4651 | 827.43
332.93 K, 21021 kPa, x2 = 0.9757 | 764.86
332.93 K, 21024 kPa, x2 = 0.3624 | 820.43
332.93 K, 21029 kPa, x2 = 0.8067 | 827.4
332.93 K, 21989 kPa, x2 = 0.8067 | 831.41
332.93 K, 21997 kPa, x2 = 0.4651 | 828.79
332.93 K, 22013 kPa, x2 = 0.3624 | 821.46
332.93 K, 22013 kPa, x2 = 0.9757 | 775.63
332.93 K, 23008 kPa, x2 = 0.8067 | 835.47
332.93 K, 23021 kPa, x2 = 0.3624 | 822.42
332.93 K, 23031 kPa, x2 = 0.4651 | 830.22
332.93 K, 23997 kPa, x2 = 0.3624 | 823.36
332.93 K, 24024 kPa, x2 = 0.4651 | 831.62
332.93 K, 24893 kPa, x2 = 0.3624 | 824.24
332.95 K, 13016 kPa, x2 = 0.8573 | 754.58
332.95 K, 13026 kPa, x2 = 0.9216 | 704.11
332.95 K, 14021 kPa, x2 = 0.9216 | 723.65
332.95 K, 14042 kPa, x2 = 0.8573 | 766.56
332.95 K, 15016 kPa, x2 = 0.9216 | 739.26
332.95 K, 15028 kPa, x2 = 0.8573 | 776.2
332.95 K, 15984 kPa, x2 = 0.9216 | 752.12
332.95 K, 16013 kPa, x2 = 0.8573 | 784.6
332.95 K, 17014 kPa, x2 = 0.8573 | 792.22
332.95 K, 17039 kPa, x2 = 0.9216 | 764.27
332.95 K, 18011 kPa, x2 = 0.8573 | 799.17
332.95 K, 18019 kPa, x2 = 0.9216 | 774.24
332.95 K, 19005 kPa, x2 = 0.9216 | 783.37
332.95 K, 19027 kPa, x2 = 0.8573 | 805.67
332.95 K, 20006 kPa, x2 = 0.8573 | 811.5
332.95 K, 20008 kPa, x2 = 0.9216 | 791.89
332.95 K, 20996 kPa, x2 = 0.8573 | 817.04
332.95 K, 21037 kPa, x2 = 0.9216 | 799.89
332.95 K, 21691 kPa, x2 = 0.9216 | 804.69
332.95 K, 22056 kPa, x2 = 0.8573 | 822.62
332.95 K, 23032 kPa, x2 = 0.8573 | 827.46
332.95 K, 24010 kPa, x2 = 0.8573 | 832.11
332.96 K, 3007 kPa, x2 = 0.0816 | 789.68
332.96 K, 4028 kPa, x2 = 0.0816 | 790.6
332.96 K, 4991 kPa, x2 = 0.0816 | 791.47
332.96 K, 5998 kPa, x2 = 0.0816 | 792.36
332.96 K, 7025 kPa, x2 = 0.0816 | 793.27
332.96 K, 7995 kPa, x2 = 0.0816 | 794.13
332.96 K, 9031 kPa, x2 = 0.0816 | 795.01
332.96 K, 10005 kPa, x2 = 0.0816 | 795.83
332.96 K, 11008 kPa, x2 = 0.0816 | 796.67
332.96 K, 12026 kPa, x2 = 0.0816 | 797.53
